According to patent US4315005A, “Cephalosporin antibiotics” (Glaxo Group Limited, priority 1979, dated 1982):

Legend:
[1] = tested on: strains of Pseudomonas organisms, e.g. strains of Pseudomonas aeruginosa; experiment: antibacterial activity against Pseudomonas strains; assay type: cell-based
[2] = tested on: strains of Staphylococcus aureus; experiment: antibacterial activity against Staphylococcus aureus; assay type: cell-based
[3] = effect of human serum on antibacterial properties; assay type: cell-based
[4] = effect of increased inocula; assay type: cell-based
[5] = serum half-life in primates; assay type: in vivo; details: extrapolated to man
[6] = distribution in the bodies of small rodents; assay type: in vivo
gram-negative bacteria = experiment: experimental infections in mice with gram-negative bacteria; assay type: in vivo
[7] = tested on: strains of Pseudomonas aeruginosa; experiment: protection of mice against strains of Pseudomonas aeruginosa; assay type: in vivo; details: for protection compared with treatment with an aminoglycoside such as amikacin: vs amikacin
[8] = administration of 500 mg/kg to mice (lethality); assay type: in vivo; details: for deaths: 500 mg/kg; for LD50: mouse, in vivo
[9] = tested on: wide range of commonly encountered pathogenic organisms; experiment: broad spectrum antibiotic activity; assay type: cell-based

Compound: CC(C)(O/N=C(\C(=O)N[C@@H]1C(=O)N2C(C(=O)[O-])=C(CSc3cc[n+](CC(N)=O)cc3)CS[C@H]12)c1csc(N)n1)C(=O)O [(6R,7R)-7-[(Z)-2-(2-Aminothiazol-4-yl)-2-(2-carboxyprop-2-oxyimino)acetamido] -3-[(1-carbamoylmethylpyridinium-4-yl)thiomethyl]ceph-3-em-4-carboxylate]
- activity against strains of Pseudomonas [1]: excellent activity
- activity against strains of Staphylococcus aureus [2]: useful activity
- antibacterial properties in human serum [3]: generally are not impaired by human serum
- effect of increased inocula against the compounds [4]: low
- probable half-life in man from serum half-life in primates [5]: comparatively long half-life in man
- distribution in the body [6]: well distributed
- therapeutic levels after subcutaneous injection [6]: useful therapeutic levels
- treatment of experimental infections with gram-negative bacteria (gram-negative bacteria): successfully treated
- protection against strains of Pseudomonas aeruginosa [7]: good protection
- protection compared with treatment with an aminoglycoside such as amikacin [7]: comparable with the treatment with an aminoglycoside such as amikacin
- deaths [8]: did not cause any deaths
- LD50 [8]: > 500 mg/kg
- general antibiotic properties [9]: to an outstanding extent

Compound: NC(=O)C[n+]1ccc(SCC2=C(C(=O)[O-])N3C(=O)[C@@H](NC(=O)/C(=N\OC4(C(=O)O)CCC4)c4csc(N)n4)[C@H]3SC2)cc1 [(6R,7R)-7-[(Z)-2-(2-Aminothiazol-4-yl)-2-(1-carboxycyclobut-1-oxyimino)acetamido]-3-[(1-carbamoylmethylpyridinium-4-yl)thiomethyl]ceph-3-em-4-carboxylate]
- activity against strains of Pseudomonas [1]: excellent activity
- activity against strains of Staphylococcus aureus [2]: useful activity
- antibacterial properties in human serum [3]: generally are not impaired by human serum
- effect of increased inocula against the compounds [4]: low
- probable half-life in man from serum half-life in primates [5]: comparatively long half-life in man
- distribution in the body [6]: well distributed
- therapeutic levels after subcutaneous injection [6]: useful therapeutic levels
- treatment of experimental infections with gram-negative bacteria (gram-negative bacteria): successfully treated
- protection against strains of Pseudomonas aeruginosa [7]: good protection
- protection compared with treatment with an aminoglycoside such as amikacin [7]: comparable with the treatment with an aminoglycoside such as amikacin
- deaths [8]: did not cause any deaths
- LD50 [8]: > 500 mg/kg
- general antibiotic properties [9]: to an outstanding extent
